# Measurements as given in US20240287047A1, “PESTICIDALLY ACTIVE DIAZINE-AMIDE COMPOUNDS” (SYNGENTA CROP PROTECTION AG, priority 2021, published 2024).
# Experiments:
# Assay type in all cases: in vivo
# Plutella xylostella = assay: Example B4: Plutella xylostella (diamond back moth), artificial diet, eggs; details: for percent control (mortality or growth inhibition) at 200 ppm: Plutella xylostella, 192 h, application rate of 200 ppm, 8 days after infestation, read-out: control in at least one of the two categories (mortality or growth inhibition); for mortality at 50 ppm: Concentration 50 ppm, Plutella xylostella (Example B4)
# Method: 24-well microtiter plates with artificial diet were treated with aqueous test solutions prepared from 10′000 ppm DMSO stock solutions by pipetting. After drying, Plutella eggs were pipetted through a plastic stencil onto a gel blotting paper and the plate was closed with it. The samples were assessed for mortality and growth inhibition in comparison to untreated samples 8 days after infestation.
# Spodoptera littoralis = assay: Example B5: Spodoptera littoralis (Egyptian cotton leaf worm), cotton leaf discs, L1 larvae; details: foliar, 72 h, application rate of 200 ppm, 3 days after infestation, read-out: control in at least one of the three categories (mortality, anti-feedant effect, or growth inhibition)
# Method: Cotton leaf discs were placed onto agar in 24-well microtiter plates and sprayed with aqueous test solutions prepared from 10,000 ppm DMSO stock solutions. After drying the leaf discs were infested with five L1 larvae. The samples were assessed for mortality, anti-feeding effect, and growth inhibition in comparison to untreated samples 3 days after infestation. Control of Spodoptera littoralis by a test sample is given when at least one of the categories mortality, anti-feedant effect, and growth inhibition is higher than the untreated sample.
# Diabrotica balteata = assay: Example B2: Diabrotica balteata (corn root worm), maize sprouts, L2 larvae; details: for percent control (mortality or growth inhibition) at 200 ppm: Diabrotica balteata, 96 h, application rate of 200 ppm, 4 days after infestation, read-out: control in at least one of the two categories (mortality or growth inhibition); for mortality at 50 ppm: Concentration 50 ppm, Diabrotica balteata (Example B32)
# Method: Maize sprouts placed onto an agar layer in 24-well microtiter plates were treated with aqueous test solutions prepared from 10,000 ppm DMSO stock solutions by spraying. After drying, the plates were infested with L2 larvae (6 to 10 per well). The samples were assessed for mortality and growth inhibition in comparison to untreated samples 4 days after infestation.
# Chilo suppressalis = assay: Example B1: Chilo suppressalis (striped rice stemborer), artificial diet, L2 larvae; details: 144 h, application rate of 200 ppm, 6 days after infestation, read-out: control in at least one of the three categories (mortality, anti-feedant effect, or growth inhibition)
# Method: 24-well microtiter plates with artificial diet were treated with aqueous test solutions prepared from 10,000 ppm DMSO stock solutions by pipetting. After drying, the plates were infested with L2 larvae (6-8 per well). The samples were assessed for mortality, anti-feeding effect, and growth inhibition in comparison to untreated samples 6 days after infestation. Control of Chilo suppressalis by a test sample is given when at least one of the categories mortality, anti-feedant effect, and growth inhibition is higher than the untreated sample.
SMILES,percent control (mortality or growth inhibition) at 200 ppm (Plutella xylostella),"percent control (mortality, anti-feedant effect or growth inhibition) at 200 ppm (Spodoptera littoralis)",percent control (mortality or growth inhibition) at 200 ppm (Diabrotica balteata),"percent control (mortality, anti-feedant effect or growth inhibition) at 200 ppm (Chilo suppressalis)",mortality at 50 ppm (Diabrotica balteata),mortality at 50 ppm (Plutella xylostella)
"CC(NC(=O)c1cc(I)cc(C(F)(F)F)c1)c1nccnc1-c1cnccn1 (stereo not shown) [Compound P23, 3-iodo-N-[1-(3-pyrazin-2-ylpyrazin-2-yl)ethyl]-5-(trifluoromethyl)benzamide]",≥ 80%,≥ 80%,≥ 80%,,,
"CC(NC(=O)c1cc(Br)cc(Br)c1)c1nccnc1-c1cnc(Cl)cn1 (stereo not shown) [Compound P36, 3,5-dibromo-N-[1-[3-(5-chloropyrazin-2-yl)pyrazin-2-yl]ethyl]benzamide]",≥ 80%,≥ 80%,≥ 80%,,,
"C[C@@H](c1nccnc1-c1cnccn1)N(C)C(=O)c1cc(I)cc(C(F)(F)F)c1 [Compound E9, 3-iodo-N-methyl-N-[(1S)-1-(3-pyrazin-2-ylpyrazin-2-yl)ethyl]-5-(trifluoromethyl)benzamide]",,≥ 80%,≥ 80%,,,
"CC(NC(=O)c1cc(Cl)cc(I)c1)c1nccnc1-c1cnccn1 (stereo not shown) [Compound P13, 3-chloro-5-iodo-N-[1-(3-pyrazin-2-ylpyrazin-2-yl)ethyl]benzamide]",≥ 80%,≥ 80%,≥ 80%,≥ 80%,,
"CC(NC(=O)c1cc(C(F)(F)F)cc(C(C)(C)C#N)c1)c1nccnc1-c1cnc(Cl)cn1 (stereo not shown) [Compound P37, N-[1-[3-(5-chloropyrazin-2-yl)pyrazin-2-yl]ethyl]-3-(1-cyano-1-methyl-ethyl)-5-(trifluoromethyl)benzamide]",≥ 80%,≥ 80%,≥ 80%,≥ 80%,,
"CC(NC(=O)c1cc(I)cc(C(F)(F)F)c1)c1nccnc1-c1cnc(Cl)cn1 (stereo not shown) [Compound P34, N-[1-[3-(5-chloropyrazin-2-yl)pyrazin-2-yl]ethyl]-3-iodo-5-(trifluoromethyl)benzamide]",≥ 80%,≥ 80%,≥ 80%,≥ 80%,,
"CC(NC(=O)c1cc(Br)nc(C2(C#N)CC2)c1)c1nccnc1-c1cnccn1 (stereo not shown) [Compound P3, 2-bromo-6-(1-cyanocyclopropyl)-N-[1-(3-pyrazin-2-ylpyrazin-2-yl)ethyl]pyridine-4-carboxamide]",≥ 80%,≥ 80%,≥ 80%,≥ 80%,,
"CC(NC(=O)c1cc(C(F)F)cc(C(F)(F)F)c1)c1nccnc1-c1ncccn1 (stereo not shown) [P22 of WO 2020/070049, reference compound]",,,,,80%,
"CC(NC(=O)c1cc(Br)cc(Br)c1)c1nccnc1-c1cnccn1 (stereo not shown) [Compound P15, 3,5-dibromo-N-[1-(3-pyrazin-2-ylpyrazin-2-yl)ethyl]benzamide]",≥ 80%,,≥ 80%,,,
"CC(NC(=O)c1cc(Cl)cc(C(F)(F)F)c1)c1nccnc1-c1ccccn1 (stereo not shown) [Example 1 of WO 2021/068179, reference compound]",,,,,,0%
"C[C@@H](c1nccnc1-c1cnccn1)N(C)C(=O)c1cc(I)cc(I)c1 [Compound E10, 3,5-diiodo-N-methyl-N-[(1S)-1-(3-pyrazin-2-ylpyrazin-2-yl)ethyl]benzamide]",,≥ 80%,≥ 80%,,,
"CC(NC(=O)c1cc(Cl)cc(OC(F)(F)F)c1)c1nccnc1-c1cnccn1 (stereo not shown) [Compound P9, 3-chloro-N-[1-(3-pyrazin-2-ylpyrazin-2-yl)ethyl]-5-(trifluoromethoxy)benzamide]",≥ 80%,,≥ 80%,≥ 80%,,
"C[C@H](NC(=O)c1cc(Br)cc(Br)c1)c1nccnc1-c1cnccn1 [Compound E6, 3,5-dibromo-N-[(1S)-1-(3-pyrazin-2-ylpyrazin-2-yl)ethyl]benzamide]",≥ 80%,≥ 80%,≥ 80%,,,
"CC(NC(=O)c1cc(C(F)(F)F)cc(S(=O)(=O)C(F)(F)F)c1)c1nccnc1-c1cnccn1 (stereo not shown) [Compound P22, N-[1-(3-pyrazin-2-ylpyrazin-2-yl)ethyl]-3-(trifluoromethyl)-5-(trifluoromethylsulfonyl)benzamide]",≥ 80%,,,≥ 80%,,
"CC(NC(=O)c1cc(C2CC2)cc(C(F)(F)F)c1)c1nccnc1-c1cnccn1 (stereo not shown) [Compound P19, 3-cyclopropyl-N-[1-(3-pyrazin-2-ylpyrazin-2-yl)ethyl]-5-(trifluoromethyl)benzamide]",≥ 80%,,≥ 80%,≥ 80%,,100%
"CC(NC(=O)c1cc(C2CC2)cc(C(F)(F)F)c1)c1nccnc1-c1ccccn1 (stereo not shown) [P33 of WO 2020/201398, reference compound]",,,,,,50%
"C[C@@H](c1nccnc1-c1cnccn1)N(C)C(=O)c1cc(C(F)F)cc(C(F)(F)F)c1 [Compound E13, 3-(difluoromethyl)-N-methyl-N-[(1S)-1-(3-pyrazin-2-ylpyrazin-2-yl)ethyl]-5-(trifluoromethyl)benzamide]",,≥ 80%,≥ 80%,,,
"C[C@H](NC(=O)c1cc(I)cc(I)c1)c1nccnc1-c1cnccn1 [Compound E5, 3,5-diiodo-N-[(1S)-1-(3-pyrazin-2-ylpyrazin-2-yl)ethyl]benzamide]",≥ 80%,≥ 80%,≥ 80%,,,
"CC(NC(=O)c1cc(Cl)cc(C(F)(F)F)c1)c1nccnc1-c1cnccn1 (stereo not shown) [Compound P6, 3-chloro-N-[1-(3-pyrazin-2-ylpyrazin-2-yl)ethyl]-5-(trifluoromethyl)benzamide]",≥ 80%,≥ 80%,,≥ 80%,,100%
"CC(NC(=O)c1cc(Cl)cc(S(=O)(=O)C(F)(F)F)c1)c1nccnc1-c1cnccn1 (stereo not shown) [Compound P33, 3-chloro-N-[1-(3-pyrazin-2-ylpyrazin-2-yl)ethyl]-5-(trifluoromethylsulfonyl)benzamide]",≥ 80%,,,≥ 80%,,
"CC(NC(=O)c1cc(C(F)(F)F)cc(C2(C#N)CC2)c1)c1nccnc1-c1ncccn1 (stereo not shown) [P25 of WO 2020/201398, reference compound]",,,,,50%,
"CC(NC(=O)c1cc(C(F)(F)F)cc(S(C)(=O)=O)c1)c1nccnc1-c1cnc(C#N)cn1 (stereo not shown) [Compound P39, N-[1-[3-(5-cyanopyrazin-2-yl)pyrazin-2-yl]ethyl]-3-methylsulfonyl-5-(trifluoromethyl)benzamide]",≥ 80%,≥ 80%,,≥ 80%,,
"CC(c1nccnc1-c1cnccn1)N(C)C(=O)c1cc(Cl)cc(C(F)(F)F)c1 (stereo not shown) [Compound P30, 3-chloro-N-methyl-N-[1-(3-pyrazin-2-ylpyrazin-2-yl)ethyl]-5-(trifluoromethyl)benzamide]",≥ 80%,,≥ 80%,≥ 80%,,
"CC(NC(=O)c1cc(Cl)cc(SC(F)(F)F)c1)c1nccnc1-c1cnccn1 (stereo not shown) [Compound P28, 3-chloro-N-[1-(3-pyrazin-2-ylpyrazin-2-yl)ethyl]-5-(trifluoromethylsulfanyl)benzamide]",≥ 80%,≥ 80%,≥ 80%,,,
